Data set [1] relates to Sprague-Dawley rats. Nature of the data set: Acute gastric ulceration after oral administration. It is filed as in vivo, rat. The settings on record: rat, in vivo. On the procedure:
Gastrointestinal Ulceration: To assess gastric damage, rats (n=4 per group) were fasted overnight with free access to water prior to the oral administration (non-anaesthetized) of the Test Samples or Test Compositions via oral gavage. The controls were dosed with CMC (2%) solution. Three hours after dosing, the rats were euthanised and the stomach was excised and opened by incision along the greater curvature. The stomach was rinsed, submerged in 10% formaldehyde for 1 h and examined to determine the extent of macroscopic gastric damage.
(§1) The total volume of the MCT or carbopol paste compositions administered per dose in the assessment of gastrointestinal ulceration was no more than 0.5 g.
In order to illustrate the adverse effects of decomposition of the copper complex in the formulation, the gastric toxicity of IndoH, Cu-acetate, a physical mixture of Cu-acetate and IndoH and [Cu2(Indo)4(DMF)2] were tested at equivalent doses of Indo (10 mg kg^−1) and/or Cu in the MCT paste or a 2% (w/v) aqueous solution of carboxymethylcellulose (CMC). The MCT paste formulations were prepared as described in Example 3 but using IndoH, Cu-acetate, a physical mixture of Cu-acetate and IndoH, or [Cu2(Indo)4(DMF)2] instead of [Cu2(Indo)4(OH2)2]. The gastric toxicity was tested as described above. The results of these experiments are illustrated in FIG. 3.
In further experiments designed to test the toxicity of solutions of the Cu complex, the [Cu2(Indo)4(DMF)2] complex was dissolved in DMF and gastric toxicities were assessed. […] Similar results would be expected using other complexes, including [Cu2(Indo)4(OH2)2], in a non-colloidal solution.

The subject of data set [2] is Sprague-Dawley rats. Briefly: Small intestine ulceration after oral administration. Format: in vivo, rat. The settings on record: rats fed, oral gavage, 24 h after dosing; IndoH 10 mg kg^−1, complexes 11 mg kg^−1; mean ± sem; listed as Sample F. As for the experimental part: The rats were orally administered (non-anaesthetized) the Test Samples or Test Compositions via oral gavage. The controls were dosed with CMC (2%) solution.
as §1

In data set [3] the test system is Sprague-Dawley rats. Briefly: Inhibition of carrageenan-induced paw edema, oral administration. It is filed as in vivo, rat. The settings on record: oral, IndoH 10 mg kg^−1, complex 11 mg kg^−1, mean(sem). On the procedure:
Inhibition of Carrageenan-Induced Paw Edema: Rats were orally administered (non-anaesthetized) the Test Samples or Test Compositions via oral gavage. The control cohort was dosed solely with CMC (2%) solution. […] Exp. Ther. 1965, 150, 165-171). The thickness of the paw was measured at the ventral dorsal footpad using digital calipers prior to dosing and at 3 and 5 h after carrageenan injection. The change in the measured parameter (ΔP) for thickness of paw (Δmm) at n=3- and 5-hours after carrageenan injection is given by: ΔP=Pt=n-Pt=0 (I) The percent inhibition (% inhibition) at 3- or 5-hours in the measured parameter (P) due to the treatment is given as the difference between the % increase in the value of P in the control group and the treatment group at n=3- or 5-hours, with the % increase in the value of P given by: […]

In data set [4] the test system is Sprague-Dawley rats. Briefly: Anti-inflammatory activity (rat paw oedema) after subcutaneous or intramuscular injection. Format: in vivo. As for the experimental part: In Vivo Anti-inflammatory Activity and Gastric Toxicity. Groups of four rats were used for all studies. All doses were calculated as equivalent concentrations of Indo. […] For subcutaneous and intramuscular administration, rats were injected with 125-200 μL volumes of the test compositions (IndoH or [Cu2(Indo)4(OH2)2] in MCT oil). The control cohort was injected with equivalent volumes of neat MCT. Subcutaneous injections were made in the lower dorsal surface and intramuscular injections were made in the right hind thigh muscle. Inflammation was induced 1 h after dosing by injection of the formulation by an injection of carrageenan (0.1 mL, 1% w/v in isotonic saline) into the plantar region of the hind paw.
Paw volume was measured prior to dosing and at 3 h after carrageenan injection by immersing the left hind paw (to the lateral malleus) into a vessel filled with water as described in Example 5. Immediately after paw volume measurements, 24 h-fasted animals were euthanised and the stomach was excised and opened by incision along the greater curvature.

For data set [5], the system named is Sprague-Dawley rats. Nature of the data set: Anti-inflammatory activity (rat paw oedema) of topical creams. The settings on record: topical emulsifying cream. Format: in vivo. On the procedure: All rat experiments were performed as outlined in Example 7, except for the following changes. In Vivo Anti-inflammatory Activity and Gastric Toxicity. For topical administration, rats were treated with test compositions containing [Cu2(Indo)4(OH2)2] (“CuIndo”), [Zn(Indo)2(OH2)2] (“ZnIndo”), IndoH, or an equivalent Indo and Cu dose of a physical mixture of [Cu2(OAc)4(OH2)2] and IndoH thoroughly mixed in an emulsifying cream (see below). An amount of 0.2 g of the composition was applied to the right hind paw of each animal and gently massaged in for 1 minute at three-hourly intervals. Inflammation was induced at the final topical application with an injection of carrageenan (0.1 mL, 1% w/v in isotonic saline) into the plantar region of the hind paw. The composition for topical application was a composition comprising 0.5-2% w/w of Indo delivered as [Cu2(Indo)4(OH2)2] (“CuIndo”), [Zn(Indo)2(OH2)2] (“ZuIndo”), IndoH or an equivalent Indo and Cu dose of a physical mixture of [Cu2(OAc)4(OH2)2] and IndoH in an emulsifying cream, the emulsifying cream consisting of: […]

For `COc1ccc2c(c1)c(CC(=O)[O-])c(C)n2C(=O)c1ccc(Cl)cc1.COc1ccc2c(c1)c(CC(=O)[O-])c(C)n2C(=O)c1ccc(Cl)cc1.COc1ccc2c(c1)c(CC(=O)[O-])c(C)n2C(=O)c1ccc(Cl)cc1.COc1ccc2c(c1)c(CC(=O)[O-])c(C)n2C(=O)c1ccc(Cl)cc1.O.O.[Cu+2].[Cu+2]` [[Cu2(Indo)4(OH2)2]], the “gastric toxicity as % of that of an equivalent dose of IndoH” value in the data set with Sprague-Dawley rats [1] is on record as “approximately 8%”. For the same compound, the “reduction of gastric toxicity versus free IndoH” value in the data set on Sprague-Dawley rats [1] is 50%. In the data set with Sprague-Dawley rats [2], the “Small intestine ulceration (mm^2)” value is on record as 61.0±34.5 mm^2. Moreover, the “percent inhibition in rat hind-paw diameter change, 3-hr” value with Sprague-Dawley rats [3] (3 h post carrageenan) is listed as 30(4)%. In the data set with Sprague-Dawley rats [3] (5 h post carrageenan), the “percent inhibition in rat hind-paw diameter change, 5-hr” value is on record as 31(3)%. The Percent inhibition amounted to 0% in the data set on Sprague-Dawley rats [4] (intramuscular, fasting rats, 2 mg/kg equivalent dose of Indo); 47.7% in the data set on Sprague-Dawley rats [4] (intramuscular, fasting rats, 10 mg/kg equivalent dose of Indo); 49.7% with Sprague-Dawley rats [4] (intramuscular, fasting rats, 20 mg/kg equivalent dose of Indo); 4% in the data set with Sprague-Dawley rats [4] (subcutaneous, 1 mg/kg of Indo, fasting); 6% in the data set with Sprague-Dawley rats [4] (subcutaneous, 2 mg/kg of Indo, fasting); 24.9% in the data set with Sprague-Dawley rats [4] (subcutaneous, 5 mg/kg of Indo, fasting). Besides, the Percent inhibition with Sprague-Dawley rats [4] (subcutaneous, 7.5 mg/kg of Indo, non-fasting) stood at 47%; with Sprague-Dawley rats [4] (subcutaneous, 10 mg/kg of Indo, fasting), 35.8%; in the data set on Sprague-Dawley rats [4] (subcutaneous, 20 mg/kg of Indo, fasting), 33.9%; in the data set on Sprague-Dawley rats [4] (subcutaneous, 20 mg/kg of Indo, non-fasting), 31.6%. Moreover, the “dose at which the anti-inflammatory effect plateaus” value with Sprague-Dawley rats [4] (subcutaneous, in MCT oil) is on record as 5-7.5 mg kg^−1 of Indo. Moreover, the “Efficacy (% inhib)” value with Sprague-Dawley rats [5] (conc. 0.5 % equiv of Indo) was found to be 12.2 % inhib; with Sprague-Dawley rats [5] (conc. 0.75 % equiv of Indo), 73 % inhib; with Sprague-Dawley rats [5] (conc. 1 % equiv of Indo) it was 52 % inhib; in the data set with Sprague-Dawley rats [5] (conc. 2 % equiv of Indo), 55.2 % inhib.

The values are drawn from patent US20080039522A1, “Composition Containing a Complex Comprising a Metal Ion and a Carboxylate Ligand Having Anti-Inflammatory Activity” (Medical Therapies Limited, priority 2004, published 2008).
